From the NIST ThermoML archive (doi:10.1016/j.jct.2014.10.023)

Experiment: excess molar enthalpy (molar enthalpy of mixing); xn = mol fraction of the nth substance listed
Conditions: 101 kPa, Liquid, Calvet calorimetry

[Li] [lithium] + [Ag]
Conditions | excess molar enthalpy [kcal/mol]
873 K, x1 = 0.5664 | -2.79
873 K, x1 = 0.5985 | -2.69
873 K, x1 = 0.6338 | -2.57
873 K, x1 = 0.6719 | -2.4
873 K, x1 = 0.7007 | -2.25
873 K, x1 = 0.7274 | -2.09
873 K, x1 = 0.7617 | -1.87
873 K, x1 = 0.7867 | -1.7
873 K, x1 = 0.8408 | -1.22
873 K, x1 = 0.8972 | -0.767
873 K, x1 = 0.932 | -0.474
873 K, x1 = 0.9771 | -0.0813
1253 K, x1 = 0.1002 | -0.73
1253 K, x1 = 0.1043 | -0.754
1253 K, x1 = 0.1097 | -0.799
1253 K, x1 = 0.1152 | -0.853
1253 K, x1 = 0.1205 | -0.897
1253 K, x1 = 0.1287 | -0.956
1253 K, x1 = 0.1355 | -1.01
1253 K, x1 = 0.1461 | -1.1
1253 K, x1 = 0.1583 | -1.21
1253 K, x1 = 0.1698 | -1.35
1253 K, x1 = 0.1884 | -1.51
1253 K, x1 = 0.1995 | -1.6
1253 K, x1 = 0.2187 | -1.73
1253 K, x1 = 0.264 | -1.85
1253 K, x1 = 0.2711 | -1.88
1253 K, x1 = 0.2851 | -1.95
1253 K, x1 = 0.2976 | -2.02
1253 K, x1 = 0.3124 | -2.12
1253 K, x1 = 0.3281 | -2.2
1253 K, x1 = 0.3503 | -2.29
1253 K, x1 = 0.3774 | -2.42
1253 K, x1 = 0.4086 | -2.52
1253 K, x1 = 0.4371 | -2.61
1253 K, x1 = 0.4847 | -2.72
1253 K, x1 = 0.5245 | -2.75
